According to ChEMBL document CHEMBL4028802, “DILIrank: the largest reference drug list ranked by the risk for developing drug-induced liver injury in humans” (Drug Discov Today, 2016):

Assays:
[1] = organism: Homo sapiens; assay: Liver toxicity in human assessed as induction of drug-induced liver injury by measuring verified drug-induced liver injury concern status
[2] = organism: Homo sapiens; assay: Liver toxicity in human assessed as induction of drug-induced liver injury by measuring severity class index
Throughout, for DILI severity class: key of the grades not given here.

Row | SMILES | DILI_Concern [1] | DILI_severity_class [2]
1 | CC(=O)O[C@H]1C(=O)[C@@]2(C)[C@H]([C@H](OC(=O)c3ccccc3)[C@]3(O)C[C@H](OC(=O)[C@H](O)[C@@H](NC(=O)c4ccccc4)c4ccccc4)C(C)=C1C3(C)C)[C@]1(OC(C)=O)CO[C@@H]1C[C@@H]2O [PACLITAXEL] | Less-Dili-Concern | 4
2 | CONC(=N)c1ccc(-c2ccc(-c3ccc(C(=N)NOC)cc3)o2)cc1 [PAFURAMIDINE] | Most-Dili-Concern | 8
3 | Cc1nc2n(c(=O)c1CCN1CCC(c3noc4cc(F)ccc34)CC1)CCCC2O (stereo not drawn) [PALIPERIDONE] | No-Dili-Concern | 0
4 | O=C1c2cccc3c2[C@H](CCC3)CN1[C@@H]1CN2CCC1CC2 [PALONOSETRON] | Ambiguous-Dili-Concern | 4
5 | CC(C)(N)CO.Cn1c(=O)c2[nH]c(Br)nc2n(C)c1=O [PAMABROM] | No-Dili-Concern | 0
6 | NCCC(O)(P(=O)(O)O)P(=O)(O)O [PAMIDRONIC ACID] | Ambiguous-Dili-Concern | 3
7 | CC(=O)O[C@H]1C[C@@H]2CC[C@@H]3[C@H](CC[C@@]4(C)[C@H]3C[C@H]([N+]3(C)CCCCC3)[C@@H]4OC(C)=O)[C@@]2(C)C[C@@H]1[N+]1(C)CCCCC1 [PANCURONIUM] | No-Dili-Concern | 0
8 | COc1ccnc(C[S+]([O-])c2nc3ccc(OC(F)F)cc3[nH]2)c1OC (stereo not drawn) [PANTOPRAZOLE] | Less-Dili-Concern | 3
9 | COc1ccc(Cc2nccc3cc(OC)c(OC)cc23)cc1OC [PAPAVERINE] | Most-Dili-Concern | 5
10 | C[C@H](/C=C/[C@H](C)C(C)(C)O)[C@H]1CC[C@H]2/C(=C/C=C3C[C@@H](O)C[C@H](O)C3)CCC[C@]12C [PARICALCITOL] | Ambiguous-Dili-Concern | 3
11 | NC[C@@H]1O[C@H](O[C@H]2[C@@H](O)[C@H](O[C@@H]3[C@@H](O)[C@H](N)C[C@H](N)[C@H]3O[C@H]3O[C@H](CO)[C@@H](O)[C@H](O)[C@H]3N)O[C@@H]2CO)[C@H](N)[C@@H](O)[C@@H]1O [PAROMOMYCIN] | No-Dili-Concern | 0
12 | Fc1ccc([C@@H]2CCNC[C@H]2COc2ccc3c(c2)OCO3)cc1 [PAROXETINE] | Less-Dili-Concern | 8
13 | Nc1nc2[nH]cc(CCc3ccc(C(=O)N[C@@H](CCC(=O)O)C(=O)O)cc3)c2c(=O)[nH]1 [PEMETREXED] | Ambiguous-Dili-Concern | 3
14 | NC1=NC(=O)C(c2ccccc2)O1 (stereo not drawn) [PEMOLINE] | Most-Dili-Concern | 8
15 | CC(C)(C)NC[C@H](O)COc1ccccc1C1CCCC1 [PENBUTOLOL] | No-Dili-Concern | 0
16 | CC(C)(S)[C@@H](N)C(=O)O [PENICILLAMINE] | Less-Dili-Concern | 2
17 | CC1(C)S[C@@H]2[C@H](NC(=O)Cc3ccccc3)C(=O)N2[C@H]1C(=O)O [PENICILLIN G] | Less-Dili-Concern | 3
18 | CC1(C)S[C@@H]2[C@H](NC(=O)COc3ccccc3)C(=O)N2[C@H]1C(=O)O [PENICILLIN V] | No-Dili-Concern | 0
19 | CSCC[C@H](NC(=O)[C@H](Cc1c[nH]c2ccccc12)NC(=O)CCNC(=O)OC(C)(C)C)C(=O)N[C@@H](CC(=O)O)C(=O)N[C@@H](Cc1ccccc1)C(N)=O [PENTAGASTRIN] | No-Dili-Concern | 0
20 | N=C(N)c1ccc(OCCCCCOc2ccc(C(=N)N)cc2)cc1 [PENTAMIDINE] | Less-Dili-Concern | 3
21 | O=C(O)CN(CCN(CC(=O)O)CC(=O)O)CCN(CC(=O)O)CC(=O)O [PENTETIC ACID] | No-Dili-Concern | 0
22 | CCCC(C)C1(CC)C(=O)NC(=O)NC1=O (stereo not drawn) [PENTOBARBITAL] | Ambiguous-Dili-Concern | 3
23 | OC[C@H]1O[C@@H](n2cnc3c2NC=NC[C@H]3O)C[C@@H]1O [PENTOSTATIN] | Most-Dili-Concern | 3
24 | CC(=O)CCCCn1c(=O)c2c(ncn2C)n(C)c1=O [PENTOXIFYLLINE] | Ambiguous-Dili-Concern | 5
25 | CCCN1C[C@H](CSC)C[C@@H]2c3cccc4[nH]cc(c34)C[C@H]21 [PERGOLIDE] | Ambiguous-Dili-Concern | 3
26 | C1CCC(C(CC2CCCCN2)C2CCCCC2)CC1 (stereo not drawn) [PERHEXILINE] | Most-Dili-Concern | 8
27 | CCC[C@H](N[C@@H](C)C(=O)N1[C@H](C(=O)O)C[C@@H]2CCCC[C@@H]21)C(=O)OCC [PERINDOPRIL] | Ambiguous-Dili-Concern | 3

Row | SMILES | DILI_Concern [1] | DILI_severity_class [2]
28 | OCCN1CCN(CCCN2c3ccccc3Sc3ccc(Cl)cc32)CC1 [PERPHENAZINE] | Less-Dili-Concern | 3
29 | C[C@H]1[C@H](c2ccccc2)OCCN1C [PHENDIMETRAZINE] | No-Dili-Concern | 0
30 | NNCCc1ccccc1 [PHENELZINE] | Less-Dili-Concern | 3
31 | CCC1(c2ccccc2)C(=O)NC(=O)NC1=O [PHENOBARBITAL] | Less-Dili-Concern | 3
32 | CC(COc1ccccc1)N(CCCl)Cc1ccccc1 (stereo not drawn) [PHENOXYBENZAMINE] | No-Dili-Concern | 0
33 | CC(COc1ccccc1)NN (stereo not drawn) [PHENOXYPROPAZINE] | Most-Dili-Concern | 8
34 | CC(C)(N)Cc1ccccc1 [PHENTERMINE] | Less-Dili-Concern | 0
35 | Cc1ccc(N(CC2=NCCN2)c2cccc(O)c2)cc1 [PHENTOLAMINE] | No-Dili-Concern | 0
36 | O=C1NC(=O)C(c2ccccc2)(c2ccccc2)N1 [PHENYTOIN] | Most-Dili-Concern | 8
37 | CNC(=O)Oc1ccc2c(c1)[C@]1(C)CCN(C)[C@@H]1N2C [PHYSOSTIGMINE] | No-Dili-Concern | 0
38 | CC1=C(C/C=C(\C)CCC[C@H](C)CCC[C@H](C)CCCC(C)C)C(=O)c2ccccc2C1=O [PHYTONADIONE] | No-Dili-Concern | 0
39 | CC[C@@H]1C(=O)OC[C@@H]1Cc1cncn1C [PILOCARPINE] | Ambiguous-Dili-Concern | 3
40 | O=c1[nH]c2ccccc2n1C1CCN(CCCC(c2ccc(F)cc2)c2ccc(F)cc2)CC1 [PIMOZIDE] | No-Dili-Concern | 0
41 | CC(C)NCC(O)COc1cccc2[nH]ccc12 (stereo not drawn) [PINDOLOL] | No-Dili-Concern | 0
42 | CCc1ccc(CCOc2ccc(CC3SC(=O)NC3=O)cc2)nc1 (stereo not drawn) [PIOGLITAZONE] | Less-Dili-Concern | 3
43 | NC(=O)C1CCN(CCCN2c3ccccc3Sc3ccc(Cl)cc32)CC1 [PIPAMAZINE] | Most-Dili-Concern | 8
44 | CCN1CCN(C(=O)N[C@@H](C(=O)N[C@@H]2C(=O)N3[C@@H]2SC(C)(C)[C@@H]3C(=O)O)c2ccccc2)C(=O)C1=O [PIPERACILLIN] | Ambiguous-Dili-Concern | 3
45 | CN1C(C(=O)Nc2ccccn2)=C(O)c2ccccc2S1(=O)=O [PIROXICAM] | Less-Dili-Concern | 3
46 | CC(C(=O)O)c1ccc(N2CC=CC2)c(Cl)c1 (stereo not drawn) [PIRPROFEN] | Most-Dili-Concern | 8
47 | O=C(O)C[C@H](O)C[C@H](O)/C=C/c1c(C2CC2)nc2ccccc2c1-c1ccc(F)cc1 [PITAVASTATIN] | Ambiguous-Dili-Concern | 3
48 | c1cc(CN2CCCNCCNCCCNCC2)ccc1CN1CCCNCCNCCCNCC1 [PLERIXAFOR] | No-Dili-Concern | 0
49 | CN1C(CSCC(F)(F)F)Nc2cc(Cl)c(S(N)(=O)=O)cc2S1(=O)=O (stereo not drawn) [POLYTHIAZIDE] | Ambiguous-Dili-Concern | 2
50 | CC[C@@H]([C@H](C)O)n1ncn(-c2ccc(N3CCN(c4ccc(OC[C@@H]5CO[C@@](Cn6cncn6)(c6ccc(F)cc6F)C5)cc4)CC3)cc2)c1=O [POSACONAZOLE] | Ambiguous-Dili-Concern | 8
51 | C#CCC(Cc1cnc2nc(N)nc(N)c2n1)c1ccc(C(=O)N[C@@H](CCC(=O)O)C(=O)O)cc1 (stereo partly drawn) [PRALATREXATE] | Ambiguous-Dili-Concern | 3
52 | C[n+]1ccccc1/C=N/O [PRALIDOXIME] | Ambiguous-Dili-Concern | 3
53 | CCCN[C@H]1CCc2nc(N)sc2C1 [PRAMIPEXOLE] | Ambiguous-Dili-Concern | 2
54 | CC[C@H](C)[C@H](NC(=O)[C@@H]1CCCN1C(=O)CNC(=O)[C@H](Cc1ccccc1)NC(=O)[C@H](CC(N)=O)NC(=O)[C@H](CC(N)=O)NC(=O)[C@H](CO)NC(=O)[C@H](CO)NC(=O)[C@H](Cc1c[nH]cn1)NC(=O)[C@@H](NC(=O)[C@H](CC(C)C)NC(=O)[C@H](Cc1ccccc1)NC(=O)[C@H](CC(N)=O)NC(=O)[C@H](C)NC(=O)[C@H](CC(C)C)NC(=O)[C@H](CCCNC(=N)N)NC(=O)[C@H](CCC(N)=O)NC(=O)[C@@H](NC(=O)[C@H](C)NC(=O)[C@@H]1CSSC[C@H](NC(=O)[C@@H](N)CCCCN)C(=O)N[C@@H](CC(N)=O)C(=O)N[C@@H]([C@@H](C)O)C(=O)N[C@@H](C)C(=O)N[C@@H]([C@@H](C)O)C(=O)N1)[C@@H](C)O)C(C)C)C(=O)N[C@@H](CC(C)C)C(=O)N1CCC[C@H]1C(=O)N1CCC[C@H]1C(=O)N[C@H](C(=O)N[C@@H](CC(N)=O)C(=O)N[C@H](C(=O)NCC(=O)N[C@@H](CO)C(=O)N[C@@H](CC(N)=O)C(=O)N[C@H](C(=O)N[C@@H](Cc1ccc(O)cc1)C(N)=O)[C@@H](C)O)C(C)C)[C@@H](C)O [PRAMLINTIDE] | No-Dili-Concern | 0
